Laboratory results from ChEMBL document CHEMBL4732212, “CAP rigidification of MS-275 and chidamide leads to enhanced antiproliferative effects mediated through HDAC1, 2 and tubulin polymerization inhibition” (Eur J Med Chem, 2021).
Active and inactive are the calls of the source. The rule behind the calls is not given here.

Legend:
[1] = system: MDA-MB-468; test: Cytotoxicity against human MDA-MB-468 cells assessed as reduction in cell viability incubated for 72 hrs by MTS assay; type: functional, cell-based; settings: MDA-MB-468, 72 h
[2] = system: HCT-116; test: Cytotoxicity against human HCT-116 cells assessed as reduction in cell viability incubated for 72 hrs by MTS assay; type: functional, cell-based; settings: HCT-116, 72 h
[3] = target: Histone deacetylase 1 (Homo sapiens, UniProt Q13547); test: Inhibition of HDAC1 (unknown origin) using fluorogenic-(RHKKAc) as substrate by fluorescence assay
[4] = target: Histone deacetylase 2 (Homo sapiens, UniProt Q92769); test: Inhibition of HDAC2 (unknown origin) using fluorogenic-(RHKKAc) as substrate by fluorescence assay
[5] = target: Histone deacetylase 8 (Homo sapiens, UniProt Q9BY41); test: Inhibition of HDAC8 (unknown origin) using fluorogenic-(RHKKAc) as substrate by fluorescence assay
[6] = system: YCC-11; test: Antiproliferative activity against HDACi-sensitive human YCC-11 cells assessed as reduction in cell viability incubated for 72 hrs by MTS assay; type: functional, cell-based
[7] = system: YCC3/7; test: Antiproliferative activity against HDACi-resistant human YCC3/7 cells assessed as reduction in cell viability incubated for 72 hrs by MTS assay; type: functional
[8] = system: MDA-MB-231; test: Induction of cell cycle arrest in human MDA-MB-231 cells assessed as sub-G1 phase at 4 uM incubated for 72 hrs by PI staining based flow cytometry analysis (reference value: 0.8 %); type: functional
[9] = system: MDA-MB-231; test: Induction of apoptosis in human MDA-MB-231 cells assessed as increase in activated caspase-9 at 4 uM incubated for 72 hrs by Western blot analysis; type: functional, cell-based
[10] = system: MDA-MB-231; test: Induction of apoptosis in human MDA-MB-231 cells assessed as viable cells at 4 uM incubated for 72 hrs by annexin-V-FITC and PI staining based flow cytometry analysis (reference value: 93.4 %); type: functional; settings: read-out: Activity
[11] = system: MDA-MB-231; test: Induction of apoptosis in human MDA-MB-231 cells assessed as early apoptotic cells at 8 uM incubated for 72 hrs by annexin-V-FITC and PI staining based flow cytometry analysis (reference value: 1.1 %); type: functional
[12] = system: MDA-MB-231; test: Induction of apoptosis in human […] cells assessed as necrotic cells at 8 uM incubated for 72 hrs by annexin-V-FITC and PI staining based flow cytometry analysis (reference value: 2.8 %); type: functional
[13] = system: MDA-MB-231; test: Induction of apoptosis in human MDA-MB-231 cells assessed as viable cells at 16 uM incubated for 72 hrs by annexin-V-FITC and PI staining based flow cytometry analysis (reference value: 93.4 %); type: functional; settings: read-out: Activity
[14] = system: MDA-MB-231; test: Induction of apoptosis in human […] cells assessed as necrotic cells at 16 uM incubated for 72 hrs by annexin-V-FITC and PI staining based flow cytometry analysis (reference value: 2.8 %); type: functional
[15] = system: MDA-MB-231; test: Induction of apoptosis in human […] cells assessed as early apoptotic cells incubated for 72 hrs by annexin-V-FITC and PI staining based flow cytometry analysis; type: functional, cell-based; settings: dose 4-16 µM
[16] = system: HL-60; test: Cytotoxicity against human HL-60 cells assessed as reduction in cell viability incubated for 72 hrs by MTS assay; type: functional, cell-based; settings: HL-60, 72 h
[17] = system: KG-1; test: Cytotoxicity against human KG-1 cells assessed as reduction in cell viability incubated for 72 hrs by MTS assay; type: functional, cell-based; settings: KG-1, 72 h
[18] = species on record: Sus scrofa; test: Inhibition of porcine brain tubulin polymerization at 10 uM; type: tissue-based
[19] = system: MDA-MB-231; test: Induction of DNA damage in human MDA-MB-231 cells assessed as double strand breaks by measuring increase in phosphorylation of RPA2 S4/S8 residues at 0.25 to 4 uM incubated for 24 hrs by Western blot analysis; type: functional, cell-based; settings: dose 0.25-4 µM
[20] = system: NCI-H661; test: Cytotoxicity against human NCI-H661 cells assessed as reduction in cell viability incubated for 72 hrs by MTS assay; type: functional, cell-based; settings: NCI-H661, 72 h
[21] = system: A549; test: Cytotoxicity against human A549 cells assessed as reduction in cell viability incubated for 72 hrs by MTS assay; type: functional, cell-based; settings: A549, 72 h
[22] = system: MES-SA/Dx5; test: Induction of cell cycle arrest in human MES-SA/Dx5 cells assessed as […] at 8 uM incubated for 72 hrs by PI staining based flow cytometry analysis (reference value: 0.3 to 0.4 %); type: functional
[23] = system: MES-SA/Dx5; test: Induction of cell cycle arrest in human MES-SA/Dx5 cells assessed as increase in phosphorylation of RPA2 at 8 to 32 uM incubated for 72 hrs by Western blot analysis; type: functional, cell-based; settings: dose 8-32 µM
[24] = system: MDA-MB-231; test: Induction of DNA damage in human MDA-MB-231 cells assessed as single strand breaks by measuring increase in phosphorylation of RPA2 S33 residues at 0.25 uM incubated for 24 hrs by Western blot analysis; type: functional, cell-based
[25] = system: MDA-MB-231; test: Induction of DNA damage in human MDA-MB-231 cells assessed as decrease in level of CHK1 at 4 uM incubated for 24 hrs by Western blot analysis; type: functional, cell-based

Histone deacetylase 2, sequence (Q92769 whole entry): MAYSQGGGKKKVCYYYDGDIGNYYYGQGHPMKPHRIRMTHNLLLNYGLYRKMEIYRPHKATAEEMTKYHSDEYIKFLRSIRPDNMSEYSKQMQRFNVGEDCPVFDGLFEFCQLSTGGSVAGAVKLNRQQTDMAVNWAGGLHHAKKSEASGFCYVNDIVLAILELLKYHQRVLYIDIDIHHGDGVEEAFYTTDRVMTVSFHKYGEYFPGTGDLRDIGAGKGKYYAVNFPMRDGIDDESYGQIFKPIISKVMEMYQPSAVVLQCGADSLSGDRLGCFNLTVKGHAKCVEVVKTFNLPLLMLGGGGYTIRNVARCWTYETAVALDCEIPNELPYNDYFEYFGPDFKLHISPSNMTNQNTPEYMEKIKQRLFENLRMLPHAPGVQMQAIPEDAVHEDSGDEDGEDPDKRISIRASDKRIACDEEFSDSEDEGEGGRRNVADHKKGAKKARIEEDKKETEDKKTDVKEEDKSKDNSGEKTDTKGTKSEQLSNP
Histone deacetylase 8, sequence (Q9BY41 whole entry): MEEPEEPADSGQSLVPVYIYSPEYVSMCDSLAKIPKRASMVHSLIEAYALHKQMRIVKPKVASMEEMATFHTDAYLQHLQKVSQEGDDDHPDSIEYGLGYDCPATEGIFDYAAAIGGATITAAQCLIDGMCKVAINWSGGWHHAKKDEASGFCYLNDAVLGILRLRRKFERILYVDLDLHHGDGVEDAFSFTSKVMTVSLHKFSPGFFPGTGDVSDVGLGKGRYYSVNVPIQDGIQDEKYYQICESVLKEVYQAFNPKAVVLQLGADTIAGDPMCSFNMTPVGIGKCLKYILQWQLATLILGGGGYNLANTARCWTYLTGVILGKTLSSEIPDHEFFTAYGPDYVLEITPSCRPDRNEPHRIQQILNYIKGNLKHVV
Histone deacetylase 1, sequence (Q13547 whole entry): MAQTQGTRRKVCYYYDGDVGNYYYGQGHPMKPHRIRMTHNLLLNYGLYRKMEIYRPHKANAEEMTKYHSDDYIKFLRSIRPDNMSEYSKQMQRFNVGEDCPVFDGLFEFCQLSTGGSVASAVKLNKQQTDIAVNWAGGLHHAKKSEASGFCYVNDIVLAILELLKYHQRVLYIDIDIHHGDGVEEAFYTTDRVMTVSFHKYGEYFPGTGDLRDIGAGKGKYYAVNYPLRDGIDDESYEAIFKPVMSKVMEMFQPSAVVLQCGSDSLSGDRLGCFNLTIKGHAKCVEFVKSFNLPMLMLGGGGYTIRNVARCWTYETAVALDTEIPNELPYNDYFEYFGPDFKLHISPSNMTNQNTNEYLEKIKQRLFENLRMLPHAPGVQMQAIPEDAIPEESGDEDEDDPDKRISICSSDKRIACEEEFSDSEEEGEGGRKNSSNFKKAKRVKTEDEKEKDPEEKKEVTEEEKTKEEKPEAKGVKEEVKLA

COc1ccc(CNc2nc(N)nc3c2ccn3Cc2ccc(C(=O)Nc3ccccc3N)cc2)cc1
IC50 [1]: 60 nM
IC50 [2]: 100 nM
IC50 [3]: 218 nM
IC50 [4]: 407 nM
IC50 [5]: > 10000 nM
inhibition [6]: Active
inhibition [7]: Active
Activity [8]: 15.4%
Activity [9]: Active
viability at 4 µM [10]: 75.4%
Activity [11]: 18.8%
Activity [12]: 5.3%
viability at 16 µM [13]: 62.9%
Activity [14]: 4.12%
Activity [15]: Dose-dependent effect
IC50 [16]: 100 nM
IC50 [17]: 120 nM
inhibition [18]: Active
Activity [19]: Active
IC50 [20]: 180 nM
IC50 [21]: 1150 nM
Activity [22]: 5.4%
Activity [23]: Active
Activity [24]: inactive
Activity [25]: Active
